ChEMBL document CHEMBL1641539 (Bioorg Med Chem Lett, 2011)

Tests used:
[1] = target: T1, Serine/threonine-protein kinase Chk1 (Homo sapiens) (UniProt O14757); assay: Inhibition of human CHK1 at 10 uM after 60 mins by TR-FRET assay; values are per cent of control
T1 sequence (whole entry): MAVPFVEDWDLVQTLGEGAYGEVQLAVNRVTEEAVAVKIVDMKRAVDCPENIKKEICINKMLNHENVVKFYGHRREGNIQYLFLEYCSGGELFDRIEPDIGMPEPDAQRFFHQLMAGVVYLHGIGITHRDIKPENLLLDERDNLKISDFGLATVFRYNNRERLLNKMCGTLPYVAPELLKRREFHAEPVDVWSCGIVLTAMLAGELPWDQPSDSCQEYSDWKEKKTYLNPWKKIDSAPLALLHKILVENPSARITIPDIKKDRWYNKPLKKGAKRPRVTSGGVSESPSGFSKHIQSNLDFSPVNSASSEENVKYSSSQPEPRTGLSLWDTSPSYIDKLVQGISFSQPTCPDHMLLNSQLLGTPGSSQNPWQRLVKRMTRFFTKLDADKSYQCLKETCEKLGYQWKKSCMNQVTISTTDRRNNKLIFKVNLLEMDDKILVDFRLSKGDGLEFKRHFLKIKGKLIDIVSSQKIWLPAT

[2] = target: Homeodomain-interacting protein kinase 3 (Homo sapiens) (UniProt Q9H422); assay: Inhibition of human HIPK3 at 10 uM after 60 mins by TR-FRET assay; values are per cent of control
[3] = target: Tyrosine-protein kinase TXK (Homo sapiens) (UniProt P42681); assay: Inhibition of human Txk at 10 uM after 60 mins by TR-FRET assay; values are per cent of control
Chain of Tyrosine-protein kinase TXK (Homo sapiens) (P42681 whole entry): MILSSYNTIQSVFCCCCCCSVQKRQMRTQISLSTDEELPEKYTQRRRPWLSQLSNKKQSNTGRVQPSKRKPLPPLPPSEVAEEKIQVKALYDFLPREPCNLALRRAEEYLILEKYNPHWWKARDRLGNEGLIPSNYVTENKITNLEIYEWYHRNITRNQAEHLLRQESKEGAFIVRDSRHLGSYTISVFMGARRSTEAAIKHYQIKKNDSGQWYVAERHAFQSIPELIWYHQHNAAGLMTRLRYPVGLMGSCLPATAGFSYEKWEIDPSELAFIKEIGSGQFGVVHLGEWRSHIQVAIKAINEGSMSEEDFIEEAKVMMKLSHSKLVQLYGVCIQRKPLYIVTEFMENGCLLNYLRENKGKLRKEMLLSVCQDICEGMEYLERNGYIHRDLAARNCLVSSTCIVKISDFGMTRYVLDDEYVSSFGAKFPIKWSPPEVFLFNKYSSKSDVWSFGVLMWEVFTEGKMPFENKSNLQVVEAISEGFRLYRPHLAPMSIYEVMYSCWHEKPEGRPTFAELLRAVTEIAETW

[4] = target: Proto-oncogene tyrosine-protein kinase Src (Homo sapiens) (UniProt P12931); assay: Inhibition of human c-SRC at 10 uM after 60 mins by TR-FRET assay; values are per cent of control
Chain of Proto-oncogene tyrosine-protein kinase Src (Homo sapiens) (P12931 2-536 limits assumed): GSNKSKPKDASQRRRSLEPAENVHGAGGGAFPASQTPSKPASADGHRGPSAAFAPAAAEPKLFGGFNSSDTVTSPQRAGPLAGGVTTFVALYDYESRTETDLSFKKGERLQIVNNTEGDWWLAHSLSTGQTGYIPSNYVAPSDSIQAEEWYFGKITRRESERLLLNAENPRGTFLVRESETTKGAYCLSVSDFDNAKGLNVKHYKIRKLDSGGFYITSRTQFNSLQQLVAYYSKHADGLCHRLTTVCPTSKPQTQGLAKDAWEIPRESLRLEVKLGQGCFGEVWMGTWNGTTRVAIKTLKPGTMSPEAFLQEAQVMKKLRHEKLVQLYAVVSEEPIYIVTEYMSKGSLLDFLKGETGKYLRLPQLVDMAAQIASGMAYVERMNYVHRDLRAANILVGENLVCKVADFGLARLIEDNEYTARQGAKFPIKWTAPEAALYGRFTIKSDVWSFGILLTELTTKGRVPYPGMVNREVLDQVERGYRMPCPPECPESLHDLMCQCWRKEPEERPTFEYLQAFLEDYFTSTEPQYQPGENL

[5] = target: High affinity nerve growth factor receptor (Homo sapiens) (UniProt P04629); assay: Inhibition of human TrkA at 10 uM after 60 mins by TR-FRET assay; details: values are per cent of control
Chain of High affinity nerve growth factor receptor (Homo sapiens) (P04629 33-796 limits assumed): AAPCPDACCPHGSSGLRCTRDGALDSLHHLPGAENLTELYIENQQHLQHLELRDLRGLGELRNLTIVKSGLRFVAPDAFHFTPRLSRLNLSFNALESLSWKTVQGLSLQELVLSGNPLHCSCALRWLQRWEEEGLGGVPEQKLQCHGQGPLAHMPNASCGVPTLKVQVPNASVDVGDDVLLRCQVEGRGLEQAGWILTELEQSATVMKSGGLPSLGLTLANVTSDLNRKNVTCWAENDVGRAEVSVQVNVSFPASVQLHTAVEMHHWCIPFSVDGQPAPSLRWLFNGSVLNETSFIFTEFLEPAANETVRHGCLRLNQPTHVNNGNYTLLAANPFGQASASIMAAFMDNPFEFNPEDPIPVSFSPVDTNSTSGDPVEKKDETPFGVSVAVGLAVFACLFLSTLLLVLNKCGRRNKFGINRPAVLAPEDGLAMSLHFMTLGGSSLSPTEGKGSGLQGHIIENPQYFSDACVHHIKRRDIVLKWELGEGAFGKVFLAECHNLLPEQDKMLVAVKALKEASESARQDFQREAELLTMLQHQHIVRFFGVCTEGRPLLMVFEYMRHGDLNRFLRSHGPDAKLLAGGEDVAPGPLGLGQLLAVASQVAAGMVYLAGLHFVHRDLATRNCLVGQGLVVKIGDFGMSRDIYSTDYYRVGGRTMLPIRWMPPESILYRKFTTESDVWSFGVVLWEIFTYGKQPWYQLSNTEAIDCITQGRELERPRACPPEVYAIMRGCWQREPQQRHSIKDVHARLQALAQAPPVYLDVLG

[6] = target: Receptor tyrosine-protein kinase erbB-4 (Homo sapiens) (UniProt Q15303); assay: Inhibition of human ErbB4 at 10 uM after 60 mins by TR-FRET assay; details: values are per cent of control
[7] = target: MAP kinase-interacting serine/threonine-protein kinase 2 (Homo sapiens) (UniProt Q9HBH9); assay: Inhibition of human Mnk2 at 10 uM after 60 mins by TR-FRET assay; values are per cent of control
Chain of MAP kinase-interacting serine/threonine-protein kinase 2 (Homo sapiens) (Q9HBH9 whole entry, looked up): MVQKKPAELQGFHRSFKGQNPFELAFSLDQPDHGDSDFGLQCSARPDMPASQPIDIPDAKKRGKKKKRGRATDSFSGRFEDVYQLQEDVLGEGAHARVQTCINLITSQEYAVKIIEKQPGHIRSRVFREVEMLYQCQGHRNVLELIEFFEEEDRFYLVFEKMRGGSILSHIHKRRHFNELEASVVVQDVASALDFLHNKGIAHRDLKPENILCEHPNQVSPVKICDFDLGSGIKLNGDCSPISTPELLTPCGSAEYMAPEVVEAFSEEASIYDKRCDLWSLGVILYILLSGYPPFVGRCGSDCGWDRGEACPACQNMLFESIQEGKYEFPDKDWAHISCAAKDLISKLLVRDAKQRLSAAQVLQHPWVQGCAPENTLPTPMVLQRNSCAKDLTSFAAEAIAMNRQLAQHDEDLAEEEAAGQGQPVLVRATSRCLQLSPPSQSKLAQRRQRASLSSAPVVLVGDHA

[8] = target: Platelet-derived growth factor receptor alpha (Homo sapiens) (UniProt P16234); assay: Inhibition of human PDGFRalpha at 10 uM after 60 mins by TR-FRET assay; values are per cent of control
[9] = target: Dual specificity mitogen-activated protein kinase kinase 6 (Homo sapiens) (UniProt P52564); assay: Inhibition of human MKK6 at 10 uM after 60 mins by TR-FRET assay; values are per cent of control
Chain of Dual specificity mitogen-activated protein kinase kinase 6 (Homo sapiens) (P52564 whole entry): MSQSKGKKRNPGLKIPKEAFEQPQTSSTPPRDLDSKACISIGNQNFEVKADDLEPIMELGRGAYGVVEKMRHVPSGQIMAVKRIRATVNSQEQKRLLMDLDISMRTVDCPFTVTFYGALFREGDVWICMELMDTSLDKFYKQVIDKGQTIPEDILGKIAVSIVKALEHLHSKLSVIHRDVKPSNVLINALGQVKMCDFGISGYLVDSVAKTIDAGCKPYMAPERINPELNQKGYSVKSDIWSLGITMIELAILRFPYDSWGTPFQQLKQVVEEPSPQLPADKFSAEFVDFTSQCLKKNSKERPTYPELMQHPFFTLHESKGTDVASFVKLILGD

[10] = target: CDK6/cyclin D3 (Homo sapiens) (UniProt P30281+Q00534); assay: Inhibition of human CDK6/cyclinD3 at 10 uM after 60 mins by TR-FRET assay; values are per cent of control
[11] = target: Calcium/calmodulin-dependent protein kinase type II subunit delta (Homo sapiens) (UniProt Q13557); assay: Inhibition of human CaMK2delta at 10 uM after 60 mins by TR-FRET assay; values are per cent of control
Chain of Calcium/calmodulin-dependent protein kinase type II subunit delta (Homo sapiens) (Q13557 whole entry): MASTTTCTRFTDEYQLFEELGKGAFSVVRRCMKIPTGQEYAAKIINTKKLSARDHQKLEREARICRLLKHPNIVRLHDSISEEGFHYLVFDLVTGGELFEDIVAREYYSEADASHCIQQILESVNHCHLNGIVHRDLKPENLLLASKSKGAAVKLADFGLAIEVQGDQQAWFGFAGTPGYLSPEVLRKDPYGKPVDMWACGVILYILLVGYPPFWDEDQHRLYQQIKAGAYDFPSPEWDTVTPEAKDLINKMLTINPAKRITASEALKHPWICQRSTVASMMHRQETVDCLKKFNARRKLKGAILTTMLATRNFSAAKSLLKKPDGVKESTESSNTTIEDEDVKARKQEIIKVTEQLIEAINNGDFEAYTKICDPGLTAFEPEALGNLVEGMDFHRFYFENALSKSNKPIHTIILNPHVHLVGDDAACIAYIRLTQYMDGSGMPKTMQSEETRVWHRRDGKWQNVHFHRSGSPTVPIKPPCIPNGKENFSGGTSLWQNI

[12] = target: Tyrosine-protein kinase ZAP-70 (Homo sapiens) (UniProt P43403); assay: Inhibition of human ZAP-70 at 10 uM after 60 mins by TR-FRET assay; values are per cent of control
[13] = target: Tyrosine-protein kinase Blk (Mus musculus) (UniProt P16277); assay: Inhibition of mouse Blk at 10 uM after 60 mins by TR-FRET assay; values are per cent of control
Chain of Tyrosine-protein kinase Blk (Mus musculus) (P16277 whole entry): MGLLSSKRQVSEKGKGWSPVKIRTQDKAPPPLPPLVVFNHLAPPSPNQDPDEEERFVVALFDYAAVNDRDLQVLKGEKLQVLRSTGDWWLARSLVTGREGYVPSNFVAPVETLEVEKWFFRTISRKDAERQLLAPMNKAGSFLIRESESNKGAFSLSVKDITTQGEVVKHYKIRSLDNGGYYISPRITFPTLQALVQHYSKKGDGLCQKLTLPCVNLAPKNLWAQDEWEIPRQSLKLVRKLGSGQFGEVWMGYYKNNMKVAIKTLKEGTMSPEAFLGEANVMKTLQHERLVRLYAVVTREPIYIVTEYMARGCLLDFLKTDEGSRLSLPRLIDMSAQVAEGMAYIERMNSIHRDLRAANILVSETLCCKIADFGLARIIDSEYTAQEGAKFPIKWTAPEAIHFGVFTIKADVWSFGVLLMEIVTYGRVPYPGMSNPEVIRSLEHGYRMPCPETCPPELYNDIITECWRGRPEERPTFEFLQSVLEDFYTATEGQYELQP

[14] = target: T2, Serine/threonine-protein kinase 3 (Homo sapiens) (UniProt Q13188); assay: Inhibition of human MST2 at 10 uM after 60 mins by TR-FRET assay; details: values are per cent of control
T2 sequence (whole entry): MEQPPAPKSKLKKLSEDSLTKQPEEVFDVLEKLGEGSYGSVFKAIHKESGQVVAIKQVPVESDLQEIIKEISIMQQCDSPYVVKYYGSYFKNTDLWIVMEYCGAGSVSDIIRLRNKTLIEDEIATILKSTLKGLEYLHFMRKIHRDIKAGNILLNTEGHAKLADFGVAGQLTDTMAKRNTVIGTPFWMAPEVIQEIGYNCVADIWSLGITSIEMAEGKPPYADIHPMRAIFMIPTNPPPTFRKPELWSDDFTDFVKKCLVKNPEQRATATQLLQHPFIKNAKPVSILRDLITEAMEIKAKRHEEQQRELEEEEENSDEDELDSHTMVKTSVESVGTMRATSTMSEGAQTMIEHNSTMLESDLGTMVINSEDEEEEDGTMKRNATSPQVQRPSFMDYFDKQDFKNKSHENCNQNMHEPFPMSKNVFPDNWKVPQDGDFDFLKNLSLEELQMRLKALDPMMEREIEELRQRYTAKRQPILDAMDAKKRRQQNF

[15] = target: Eukaryotic elongation factor 2 kinase (Homo sapiens) (UniProt O00418); assay: Inhibition of human eEF-2K at 10 uM after 60 mins by TR-FRET assay; values are per cent of control
[16] = target: Tyrosine-protein kinase ABL1 (Homo sapiens) (UniProt P00519); assay: Inhibition of human Abl at 10 uM after 60 mins by TR-FRET assay; values are per cent of control
[17] = target: Fibroblast growth factor receptor 4 (Homo sapiens) (UniProt P22455); assay: Inhibition of human FGFR4 at 10 uM after 60 mins by TR-FRET assay; values are per cent of control
Chain of Fibroblast growth factor receptor 4 (Homo sapiens) (P22455 22-802 limits assumed): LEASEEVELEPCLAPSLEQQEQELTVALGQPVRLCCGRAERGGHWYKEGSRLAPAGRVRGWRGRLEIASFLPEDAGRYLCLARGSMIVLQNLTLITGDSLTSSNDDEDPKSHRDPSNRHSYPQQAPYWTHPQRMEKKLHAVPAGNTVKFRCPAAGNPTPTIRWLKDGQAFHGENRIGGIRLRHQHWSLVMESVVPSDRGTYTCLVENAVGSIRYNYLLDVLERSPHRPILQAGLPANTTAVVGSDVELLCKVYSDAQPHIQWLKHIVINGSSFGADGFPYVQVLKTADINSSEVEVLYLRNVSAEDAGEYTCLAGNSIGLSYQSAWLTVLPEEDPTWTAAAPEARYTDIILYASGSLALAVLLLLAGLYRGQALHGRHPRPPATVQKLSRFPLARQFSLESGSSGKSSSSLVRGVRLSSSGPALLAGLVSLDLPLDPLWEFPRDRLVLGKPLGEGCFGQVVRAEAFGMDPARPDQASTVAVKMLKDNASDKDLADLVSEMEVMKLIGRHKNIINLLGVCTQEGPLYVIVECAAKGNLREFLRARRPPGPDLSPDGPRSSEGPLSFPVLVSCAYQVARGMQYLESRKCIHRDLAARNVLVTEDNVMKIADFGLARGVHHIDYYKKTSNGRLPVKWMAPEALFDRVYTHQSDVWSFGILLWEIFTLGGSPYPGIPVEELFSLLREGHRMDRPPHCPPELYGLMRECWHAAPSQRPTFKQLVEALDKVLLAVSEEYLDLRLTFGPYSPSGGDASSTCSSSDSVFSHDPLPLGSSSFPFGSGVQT

[18] = target: Protein kinase C zeta type (Homo sapiens) (UniProt Q05513); assay: Inhibition of human PKCzeta at 10 uM after 60 mins by TR-FRET assay; values are per cent of control
Chain of Protein kinase C zeta type (Homo sapiens) (Q05513 whole entry): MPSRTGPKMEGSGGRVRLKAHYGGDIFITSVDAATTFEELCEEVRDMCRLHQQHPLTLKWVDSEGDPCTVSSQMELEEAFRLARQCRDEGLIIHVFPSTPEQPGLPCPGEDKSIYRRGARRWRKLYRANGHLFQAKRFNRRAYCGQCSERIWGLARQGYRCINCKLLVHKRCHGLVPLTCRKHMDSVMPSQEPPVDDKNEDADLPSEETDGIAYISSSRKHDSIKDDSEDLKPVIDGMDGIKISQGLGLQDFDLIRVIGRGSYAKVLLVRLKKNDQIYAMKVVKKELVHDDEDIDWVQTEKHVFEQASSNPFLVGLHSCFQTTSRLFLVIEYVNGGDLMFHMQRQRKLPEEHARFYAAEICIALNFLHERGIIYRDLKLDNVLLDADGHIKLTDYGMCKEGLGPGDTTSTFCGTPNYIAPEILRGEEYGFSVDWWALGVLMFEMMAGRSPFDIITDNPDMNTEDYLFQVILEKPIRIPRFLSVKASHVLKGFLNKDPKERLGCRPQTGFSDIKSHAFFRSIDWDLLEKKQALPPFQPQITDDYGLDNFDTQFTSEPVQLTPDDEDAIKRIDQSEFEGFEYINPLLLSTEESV

[19] = target: MAP kinase-activated protein kinase 2 (Homo sapiens) (UniProt P49137); assay: Inhibition of human MAPKAP-K2 at 10 uM after 60 mins by TR-FRET assay; details: values are per cent of control
Rattus norvegicus = species: Rattus norvegicus; assay: Inhibition of rat AMPK at 10 uM after 60 mins by TR-FRET assay; values are per cent of control

residual activity [1]: 113%
residual activity [2]: 109%
residual activity [3]: 93%
residual activity [4]: 93%
residual activity [5]: 116%
residual activity [6]: 99%
residual activity [7]: 112%
residual activity [8]: 99%
residual activity [9]: 85%
residual activity [10]: 102%
residual activity [11]: 106%
residual activity [12]: 100%
residual activity [13]: 107%
residual activity [14]: 103%
residual activity [15]: 105%
residual activity [16]: 113%
residual activity [17]: 95%
residual activity [18]: 115%
residual activity [19]: 106%
residual activity (Rattus norvegicus): 108%
Compound: S=c1[nH]nc(-c2ccncc2)n1-c1ccc2ccccc2c1
